Assay results as given in US20030105095A1 (CHEIL JEDANG Corporation, priority 2001, published 2003).

Legend:
[1] = target: T1, cyclooxygenase-1 (Mus musculus, UniProt P22437); assay: Cyclooxygenase-1 inhibition in mouse peritoneal macrophages (PGE2 ELISA); assay type: cell-based
T1 construct: endogenous in cells; host or cells: primary mouse peritoneal macrophages (unstimulated)
T1 sequence (P22437 27-602): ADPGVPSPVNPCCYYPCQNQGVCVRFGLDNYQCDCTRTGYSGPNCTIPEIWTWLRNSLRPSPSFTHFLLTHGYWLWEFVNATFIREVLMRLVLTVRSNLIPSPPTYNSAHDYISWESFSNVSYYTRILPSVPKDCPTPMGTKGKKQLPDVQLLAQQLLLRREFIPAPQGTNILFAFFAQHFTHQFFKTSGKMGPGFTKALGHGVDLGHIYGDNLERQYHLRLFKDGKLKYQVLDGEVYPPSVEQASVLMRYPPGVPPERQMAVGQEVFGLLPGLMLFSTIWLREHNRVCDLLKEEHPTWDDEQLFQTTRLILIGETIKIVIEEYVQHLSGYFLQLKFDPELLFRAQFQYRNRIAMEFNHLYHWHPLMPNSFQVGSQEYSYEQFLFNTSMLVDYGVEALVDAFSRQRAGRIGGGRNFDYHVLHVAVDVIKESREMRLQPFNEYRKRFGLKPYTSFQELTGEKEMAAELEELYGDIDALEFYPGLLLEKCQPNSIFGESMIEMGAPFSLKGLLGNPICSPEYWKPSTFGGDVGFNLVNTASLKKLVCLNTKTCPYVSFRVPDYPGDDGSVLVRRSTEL
Description: First of all, the cyclooxygenase-1 was examined through the following procedure.
(§1) Peritoneal fluid in which macrophages were suspended was extracted from a mouse peritoneal cavity and centrifuged at 4° C., 1,000 rpm for 2 minutes. Then, the supernatant was removed, suspended using 20 ml of incomplete RPMI medium [including PC/SM (penicilin/streptomycin)] and again centrifuged under the same condition. […] Then, the cell number was calculated with the hemocytometer and adjusted to reach 1×10^6 cells/ml of cell concentration in the final cell suspension. The resulting suspension was poured into each well of 96-well plate and left with the incubator at 37° C. in 5% CO2 for about 2 hours in order to attach macrophages. […] The resulting cell was cultivated with the incubator at 37° C. in 5% CO2 for about 12˜16 hours. Then, arachidonic acid was added, adjusting to 10 μM of a final concentration and incubated at 37° C. for more 10 minutes and the supernatant of the reacted solution (˜180 μl) was recovered to finish the reaction.

[2] = target: T2, cyclooxygenase-2 (Mus musculus, UniProt Q05769); assay: Cyclooxygenase-2 inhibition in aspirin-treated, LPS-induced mouse peritoneal macrophages (PGE2 ELISA); assay type: cell-based
T2 construct: blended with 3% FBS-RPMI 1640 medium containing 10 μg/ml of LPS in each well; endogenous in cells; host or cells: primary mouse peritoneal macrophages, pretreated with 500 μM aspirin and induced with LPS
T2 sequence (Q05769 18-604): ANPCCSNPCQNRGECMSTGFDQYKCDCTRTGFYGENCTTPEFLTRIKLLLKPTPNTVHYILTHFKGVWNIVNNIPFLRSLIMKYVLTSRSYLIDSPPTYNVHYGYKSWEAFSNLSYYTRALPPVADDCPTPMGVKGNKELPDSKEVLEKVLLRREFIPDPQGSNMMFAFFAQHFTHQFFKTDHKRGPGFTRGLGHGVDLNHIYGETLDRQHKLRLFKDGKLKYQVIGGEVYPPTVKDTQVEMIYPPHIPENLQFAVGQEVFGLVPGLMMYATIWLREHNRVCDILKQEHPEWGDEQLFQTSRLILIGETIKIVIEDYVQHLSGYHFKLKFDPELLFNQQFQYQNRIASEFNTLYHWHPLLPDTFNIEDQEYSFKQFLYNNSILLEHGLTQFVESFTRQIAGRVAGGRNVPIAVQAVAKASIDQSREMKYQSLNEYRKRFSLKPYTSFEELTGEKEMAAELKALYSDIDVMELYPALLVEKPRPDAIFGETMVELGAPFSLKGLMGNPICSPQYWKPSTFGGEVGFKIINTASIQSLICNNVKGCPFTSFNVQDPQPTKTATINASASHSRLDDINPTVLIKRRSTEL
Description: Second, the cyclooxygenase-2 was examined through the following procedure.
as §1, with “RPMI medium [PC/SM (penicilin/streptomycin)] and” for “RPMI medium [including PC/SM (penicilin/streptomycin)] and”, “suspension was treated with aspirin, adjusting 500 μM of final concentration and poured into” for “suspension was poured into”, “96-well plate in 100 μl respectively. Again, it was left with” for “96-well plate and left with”

Row | SMILES | Inhibitory effects of cyclooxygenase (COX): COX-1 ([1]; 3 μM) [% inhibition] | Inhibitory effects of cyclooxygenase (COX): COX-1 ([1]; 10 μM) [% inhibition] | Inhibitory effects of cyclooxygenase (COX): COX-1 ([1]; 30 μM) [% inhibition] | Inhibitory effects of cyclooxygenase (COX): COX-2 ([2]; 30 nM) | Inhibitory effects of cyclooxygenase (COX): COX-2 ([2]; 100 nM) | Inhibitory effects of cyclooxygenase (COX): COX-2 ([2]; 300 nM)
1 | COc1ccc(-c2ccc(S(C)(=O)=O)cc2)cc1OC [Example 1, 4′-methanesulfonyl-3,4-dimethoxy-biphenyl] | 44.4 | 50.5 | 64.7 | 46.2 % inhibition | 50.7 % inhibition | 59.7 % inhibition
2 | CCOc1ccc(-c2ccc(S(C)(=O)=O)cc2)cc1OCC [Example 2, 4′-methanesulfonyl-3,4-diethoxy-biphenyl] | 61.5 | 70.5 | 77.1 | 55.2 % inhibition | 60.5 % inhibition | 76.5 % inhibition
3 | CCCOc1ccc(-c2ccc(S(C)(=O)=O)cc2)cc1OCCC [Example 3, 4′-methanesulfonyl-3,4-dipropyloxy-biphenyl] | 9.4 | 10.1 | 23.4 | 5.0 % inhibition | 5.5 % inhibition | 10.1 % inhibition
4 | CC(C)Oc1ccc(-c2ccc(S(C)(=O)=O)cc2)cc1OC(C)C [Example 4, 4′-methanesulfonyl-3,4-diisopropyloxy-biphenyl] | 58.2 | 70.4 | 78.4 | ˜0 % inhibition | ˜0 % inhibition | ˜0 % inhibition
5 | CS(=O)(=O)c1ccc(-c2ccc(OC3CC3)c(OC3CC3)c2)cc1 [Example 5, 4′-methanesulfonyl-3,4-dicyclopropyloxy-biphenyl] | 50.3 | 58.4 | 60.4 | 30.2 % inhibition | 33.3 % inhibition | 46.5 % inhibition
6 | CCCCOc1ccc(-c2ccc(S(C)(=O)=O)cc2)cc1OCCCC [Example 6, 4′-methanesulfonyl-3,4-dibutyloxy-biphenyl] | 14.7 | 20.9 | 22.7 | ˜0 % inhibition | ˜0 % inhibition | ˜0 % inhibition
7 | CS(=O)(=O)c1ccc(-c2ccc(OCc3ccccc3)c(OCc3ccccc3)c2)cc1 [Example 7, 4′-methanesulfonyl-3,4-dibenzyloxy-biphenyl] | 36.8 | 40.5 | 41.1 | 47.6 % inhibition | 60.3 % inhibition | 68.4 % inhibition
8 | CS(=O)(=O)c1ccc(-c2ccc(OC3CCCC3)c(OC3CCCC3)c2)cc1 [Example 8, 4′-methanesulfonyl-3,4-dicyclopentyloxy-biphenyl] | 29.7 | 40.2 | 49.7 | 27.4 % inhibition | 42.7 % inhibition | 54.7 % inhibition
9 | CCCCOc1cc(-c2ccc(S(C)(=O)=O)cc2)ccc1OC(C)C [Example 9, 3-butoxy-4-isopropoxy-4′-methanesulfonyl-biphenyl] | 49.8 | 66.4 | 70.8 | 44.2 % inhibition | 59.8 % inhibition | 70.4 % inhibition
